Results from patent publication US20050232924A1, “Antibodies and/or conjugates thereof which bind to the amino terminal fragment of urokinase, compositions and uses thereof” (Attenuon LLC, priority 2003, published 2005).

Experiments:
MDA-MB-231 cells [1] = assay: MTT proliferation assay; format: cell-based, human; settings: 10 μM; FIG. 13A
Procedure: The ability of ATN-291-Dox to inhibit proliferation of MDA-MB-231 cells was tested in an MTT assay. […] A dose titration was performed with the ATN-291-Dox conjugate. As shown in FIG. 10B the conjugate inhibited proliferation with an IC-50 of ˜1.6 μM.

MDA-MB-231 cells [2] = assay: Distribution of Dox by fluorescence microscopy; format: cell-based, human; settings: 1.6 μM, 24 h; FIG. 14
Procedure: To further characterize the ATN-291-Dox conjugates the distribution of Dox was monitored by fluorescence microscopy. MDA-MB-231 cells grown on glass chamber slides were incubated with either 1.6 μM Dox or 1.6 μM ATN-291-Dox for 24 h under the same conditions used for the MTT assay. Following incubation, the supernatant was removed and the cells washed extensively with PBS. Cells were fixed in paraformaldehyde, mounted and observed by fluorescence microscopy.

COc1cccc2c1C(=O)c1c(O)c3c(c(O)c1C2=O)C[C@@](O)(C(=O)CO)C[C@@H]3O[C@H]1C[C@H](N)[C@H](O)[C@H](C)O1 [Dox, doxorubicin]
effect on cell proliferation (MDA-MB-231 cells [1]): significantly inhibited proliferation | cellular localization of Dox fluorescence (MDA-MB-231 cells [2]): primarily localized to the nucleus of treated cells
